Assay results: PubChem BioAssay (NCI)
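Step 1: Grow cells in 96-well plates. Step 2: Expose to compound for 48 hours at 5 concentrations. Step 3: Interpolate endpoints linearly; if unreached, use highest concentration. GI50 = concentration required for 50% inhibition of growth. The concentration for full growth arrest is given as TGI.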

Legend:
Assay in all cases: inhibition of tumour cell growth, NCI panel, 48 h
[1] = system: DLD-1 colon
[2] = system: RXF-631 renal
[3] = system: M19-MEL melanoma
[4] = system: KM20L2 colon
[5] = system: HOP-18 NSCLC
[6] = system: MCF7 breast
[7] = system: MDA-MB-435
[8] = system: MDA-MB-231 breast
[9] = system: MDA-N

`Cc1cccc(/C=N/N=C(\N)NO)n1` showed a TGI [1] greater than 100 µM, a TGI [2] greater than 100 µM and a TGI [3] greater than 100 µM.
In the case of `CC(C(=O)c1ccc(O)cc1)C1(O)C(=O)Nc2c(Cl)cc(Cl)cc21` (configuration not stated), the TGI [1] is reported as greater than 100 µM, the TGI [4] is reported as greater than 100 µM and the TGI [2] is reported as greater than 100 µM. The TGI [3] was 57.6 µM.
Work on `CCOC(=O)C1=C(Nc2cccc3ccccc23)OCC1=O` yielded a TGI [1] greater than 100 µM, a TGI [4] greater than 100 µM and a TGI [2] greater than 100 µM.
`CC(C)(C)[Si](C)(C)O/N=C\c1cccc(O[Si](C)(C)C(C)(C)C)c1` showed a TGI [5] of 42.3 µM, a TGI [1] of 33.6 µM and a TGI [4] of 38.8 µM. It also gave a TGI [3] of 34.6 µM.
With `COc1ccc(C2C(C(=O)O)=C(CO)Oc3cc4c(cc32)OCO4)c(OC)c1` (configuration not stated) the TGI [5] was greater than 100 µM, the TGI [1] was greater than 100 µM and the TGI [4] was greater than 100 µM. For the same compound, the TGI [2] was greater than 100 µM and the TGI [3] was greater than 100 µM.
In the case of `CNC(=O)NCCCCC(NC(=O)OCc1ccccc1)C(=O)OCc1ccccc1` (configuration not stated), the TGI [1] is reported as greater than 100 µM, the TGI [4] is reported as greater than 100 µM and the TGI [2] is reported as 46.1 µM. For the same compound, the TGI [3] was 48 µM.
Compound `[N-]=[N+]=Nc1nnc(CCCCc2nnc(N=[N+]=[N-])o2)o1` has a TGI [5] greater than 100 µM, a TGI [1] greater than 100 µM and a TGI [4] greater than 100 µM. The TGI [2] was 58.1 µM and the TGI [3] was greater than 100 µM.
`O=C(CC(=O)c1cccc2ccccc12)C(=O)Nc1nccs1` was tested, and the TGI [5] was greater than 100 µM, the TGI [1] was greater than 100 µM and the TGI [4] was greater than 100 µM. The TGI [3] was greater than 100 µM.
With `CC(C)(C)CC(C)(C)c1cc2c(O)c(c1)Cc1cc(C(C)(C)CC(C)(C)C)cc(c1O)Cc1cc(C(C)(C)CC(C)(C)C)cc(c1O)Cc1cc(C(C)(C)CC(C)(C)C)cc(c1O)Cc1cc(C(C)(C)CC(C)(C)C)cc(c1O)Cc1cc(C(C)(C)CC(C)(C)C)cc(c1O)Cc1cc(C(C)(C)CC(C)(C)C)cc(c1O)Cc1cc(C(C)(C)CC(C)(C)C)cc(c1O)C2` the TGI [1] was greater than 100 µM, the TGI [4] was greater than 100 µM and the TGI [3] was greater than 100 µM.
In the case of `CC(=O)Nc1ccc(S(=O)(=O)N/N=C(\C)CN2C(=O)c3ccccc3C2=O)cc1`, the TGI [5] is reported as greater than 100 µM, the TGI [1] is reported as greater than 100 µM and the TGI [4] is reported as greater than 100 µM. The TGI [3] was greater than 100 µM.
`C=CCC(O)c1cc(OC)ccc1OC` (configuration not stated) gave a TGI [2] greater than 100 µM and a TGI [3] greater than 100 µM.
For `CCOC(=O)/C(=C/c1ccccc1)N(CC)CC`, the TGI [4] was greater than 100 µM and the TGI [3] was greater than 100 µM.
`CCOc1cc2cnc3c4cc(OC)c(OC)cc4ccc3c2cc1OC` gave a TGI [5] greater than 100 µM, a TGI [1] greater than 100 µM and a TGI [4] greater than 100 µM. It also gave a TGI [3] greater than 100 µM.
`CC(C)=CC1(C)/C(=N\O)C(C)(CC(C)C)C(=O)N1O` (configuration not stated) showed a TGI [1] greater than 100 µM, a TGI [4] greater than 100 µM and a TGI [2] greater than 100 µM. For the same compound, the TGI [3] was greater than 100 µM.
In the case of `NC(CCSCCF)C(=O)O` (configuration not stated), the TGI [5] is reported as greater than 100 µM, the TGI [4] is reported as greater than 100 µM and the TGI [3] is reported as greater than 100 µM.
Work on `CC(=O)OCc1ncccc1C(OC(C)=O)OC(C)=O` yielded a TGI [5] greater than 100 µM, a TGI [1] greater than 100 µM and a TGI [4] greater than 100 µM. For the same compound, the TGI [3] was greater than 100 µM.
For `CC1=C(c2ccccc2)CON(c2ccccc2)C1`, the TGI [4] was greater than 100 µM, the TGI [2] was 77.4 µM and the TGI [3] was greater than 100 µM.
`NC(=S)N/N=C1/C(=O)N(c2ccccc2)C(=O)C1C(=O)Nc1ccccc1` (configuration not stated) was tested, and the TGI [5] was greater than 100 µM, the TGI [4] was greater than 100 µM and the TGI [2] was greater than 100 µM. The TGI [3] was greater than 100 µM.
With `COc1cc2ccnc(-c3n[nH]c4cc(OC)c(OC)cc34)c2cc1OC` the TGI [5] was greater than 100 µM, the TGI [4] was greater than 100 µM and the TGI [2] was 93.4 µM. The TGI [3] was greater than 100 µM.
In the case of `COC(=O)CCC(=O)Nc1cc(C)ccc1C`, the TGI [5] is reported as greater than 100 µM, the TGI [1] is reported as greater than 100 µM and the TGI [2] is reported as greater than 100 µM. It also gave a TGI [3] greater than 100 µM.
For `Cc1c(-c2cc(-c3ccccc3)n[nH]c2=O)c2ccccc2n1C`, the TGI [5] was greater than 100 µM, the TGI [1] was greater than 100 µM and the TGI [4] was greater than 100 µM. For the same compound, the TGI [3] was greater than 100 µM.
With `C=CC(=O)OCCCS(=O)(=O)[O-].C=CC(=O)OCCCS(=O)(=O)[O-].NC1CCCCC1N.[Pt+4]` the GI50 [5] was greater than 25 µM, the TGI [5] was greater than 25 µM and the GI50 [1] was greater than 25 µM. For the same compound, the TGI [1] was greater than 25 µM, the GI50 [4] was greater than 25 µM and the TGI [4] was greater than 25 µM. For the same compound, the GI50 [3] was greater than 25 µM and the TGI [3] was greater than 25 µM.
For `COc1cc2c(cc1OC)C(Cc1cc(Br)c(OC)c(OC)c1)=[N+](C)CC2`, the TGI [5] was greater than 100 µM, the TGI [1] was greater than 100 µM and the TGI [4] was greater than 100 µM. The TGI [3] was greater than 100 µM.
`CC1=CC[C@@H]2C(=O)C=CC=C[C@H]12.[C-]#[O+].[C-]#[O+].[C-]#[O+].[Fe]` was tested, and the GI50 [5] was greater than 100 µM, the TGI [5] was greater than 100 µM and the GI50 [1] was greater than 100 µM. For the same compound, the TGI [1] was greater than 100 µM, the GI50 [4] was greater than 100 µM and the TGI [4] was greater than 100 µM. For the same compound, the GI50 [3] was greater than 100 µM and the TGI [3] was greater than 100 µM.
`COc1ccccc1NC(=O)C1=C(C)NC(C)=C(C(=O)Nc2ccccc2OC)C1c1ccc(C2C(C(=O)Nc3ccccc3OC)=C(C)NC(C)=C2C(=O)Nc2ccccc2OC)cc1` was tested, and the TGI [5] was 31.9 µM, the TGI [1] was 2.66 µM and the TGI [4] was 3.39 µM. For the same compound, the TGI [2] was 13.7 µM and the TGI [3] was 11.5 µM.
For `Nc1ncnc2c1N=CN(Oc1ccccc1)N2`, the TGI [1] was greater than 100 µM, the TGI [4] was greater than 100 µM and the TGI [2] was greater than 100 µM. It also gave a TGI [3] greater than 100 µM.
In the case of `CN(C)C(=S)/N=C(\N)N(C)C`, the TGI [5] is reported as greater than 100 µM, the TGI [1] is reported as greater than 100 µM and the TGI [4] is reported as greater than 100 µM. For the same compound, the TGI [2] was greater than 100 µM and the TGI [3] was greater than 100 µM.
`CC/C(=N/O)C(C)C(=O)CCC(=O)Nc1ccc(Cl)cc1` (configuration not stated) showed a TGI [5] greater than 100 µM, a TGI [1] greater than 100 µM and a TGI [4] greater than 100 µM. The TGI [3] was greater than 100 µM.
`OCC(O)C(OC1OC(CO)C(O)C(O)C1O)c1nn(-c2ccc(Cl)cc2)c2nc3cc(Cl)c(Cl)cc3nc12` (configuration not stated) showed a TGI [1] greater than 100 µM, a TGI [4] greater than 100 µM and a TGI [3] greater than 100 µM.
For `O=C(/C=C/c1ccco1)N1CCN(Cc2ccccc2)CC1`, the TGI [5] was greater than 100 µM, the TGI [1] was greater than 100 µM and the TGI [4] was greater than 100 µM. It also gave a TGI [2] greater than 100 µM and a TGI [3] greater than 100 µM.
Work on `COC(=O)c1ccc(N/C=C(/C#N)c2ccsc2)cc1` yielded a TGI [1] greater than 100 µM, a TGI [4] of 28.1 µM and a TGI [3] greater than 100 µM.
`CCCCCCCCCCCc1cc(=O)c2c(O)cccc2o1` was tested, and the TGI [5] was greater than 100 µM, the TGI [1] was greater than 100 µM and the TGI [2] was greater than 100 µM. It also gave a TGI [3] greater than 100 µM.
`CC(C)CCCC(C)[C@H]1CCC2C3CC=C4C[C@@H](OC(=O)CC(CC(=O)[O-])C(=O)[O-])CC[C@]4(C)C3CC[C@@]21C.N.N.[Pt+4]` (some centres not stated) showed a GI50 [5] greater than 100 µM, a TGI [5] greater than 100 µM and a GI50 [4] greater than 100 µM. The TGI [4] was greater than 100 µM.
For `COc1ccccc1C(=O)Nc1ccc(Cl)c(C(=O)OC(C)C)c1`, the TGI [6] was greater than 100 µM, the TGI [5] was greater than 100 µM and the TGI [4] was greater than 100 µM. For the same compound, the TGI [7] was greater than 100 µM, the TGI [8] was greater than 100 µM and the TGI [2] was greater than 100 µM. For the same compound, the TGI [3] was greater than 100 µM and the TGI [9] was greater than 100 µM.
